This note sets out measurements from article PMC8414367, “(E)-7-Ethylidene-lithocholic Acid (7-ELCA) Is a Potent Dual Farnesoid X Receptor (FXR) Antagonist and GPBAR1 Agonist Inhibiting FXR-Induced Gene Expression in Hepatocytes and Stimulating Glucagon-like Peptide-1 Secretion From Enteroendocrine Cells” (Frontiers in Pharmacology, 2021).

Series [1] deals with GLUTag cells. In words: GLP-1 secretion in siRNA control or Gpbar1 siRNA transfected GLUTag cells. It counts as cell-based, murine. The settings on record: 10 µM, 1 h. As for the experimental part:
GLUTag cells were transfected with non-targeting scrambled siRNA (siRNA control) or with the combination of siRNAs specific for Gpbar1 (Silencer® Select Pre-designed siRNA, LOT# ASO2HKN6 and ASO2HKN7, Life Technologies, Carlsbad, CA, United States) twice at 24 and 72 h after seeding using Lipofectamine RNAiMAX reagent (Life Technologies, Carlsbad, CA, United States). GLUTag cells were then treated with tested molecules at the day 4 post-seeding.
FIGURE 8 Effects of 7-alkylated derivatives of CDCA and 7-ELCA on the membrane receptor GPBAR1. […] . (B) CRE-luc activation depends on the presence of GPBAR1. (C) Effects of LCA and 7-ELCA (both at 10 µM) on intracellular generation of cAMP in differentiated NCI-H716 cells after 30 min treatment. The increase in cAMP level (ΔcAMP) is presented as the difference between cAMP concertation in the treated sample after subtraction of the cAMP in the nontreated control sample. (D) Concentration-response curves for activation of GPBAR1 by LCA and 7-ELCA. EC50 values were calculated using nonlinear fitting of concentration-response curves. […] (G) 7-ELCA (10 µM) increases GLP-1 secretion in siRNA control but not in siRNA Gpbar1 transfected GLUTag cells after 1 h treatment. GLP-1 was normalized to protein concentration and GPBAR1 mRNA expression to GAPDH mRNA. Data are presented as a fold to control nontreated (NT) samples. […]

Series [2] addresses vitamin D receptor (VDR) (Homo sapiens, UniProt P11473). Nature of the series: Nuclear receptor specificity luciferase reporter assay in HepG2 cells.
Protocol: For transient transfection, HepG2 cells were seeded at the density of 40,000 cells/cm^2. […] The next day, cells were challenged with tested ligands in indicated concentrations for 5 h. […] All the other transient transfection reporter gene assays were performed with Lipofectamine® 3000 (ThermoFisher Scientific). Briefly, cells were transfected with 150 ng/well luciferase reporter gene constructs (p(DR3)3-luc, SHP-luc, p3A4-luc, pTAT-(GRE)2-TK-luc, p2B6-luc, pGL4.35[luc2P⁄9XGAL4UAS⁄Hygro]), FXRE-luc together with 100 ng/well of the corresponding full-length fragment nuclear receptor expression vectors (pSG5-hVDR, pSG5-hFXR, pSG5-hRXRα, pSG5-hPXR, CAR3 variant) or the ligand binding domains of human, pCMX-GAL4-hFXR, pCMX-GA4L-LXRα, pCMX-GA4L-LXRα, pCMX-GA4L-TRα, pCMX-GA4L-PPARα, pCMX-GAL4-PPARγ, pCMX-GAL4-PPARδ) and 30 ng/well of pRL-TK Renilla luciferase vector 24 h prior to the treatment. […] The firefly luciferase activity was measured using the Dual Luciferase® Reporter Assay System (Promega) and normalized to Renilla luciferase activity. Experiments in an agonistic mode were performed with OCA, CDCA or tested compounds (all compounds at 10 μM). […] EC50 and IC50 were calculated using GraphPad PRISM ver. […]
Data were normalized to Renilla luciferase activity and are expressed as fold activation relative to control (nontreated, NT) cells. […]
For series [3], the system named is SHP protein, HepaRG cells. In words: Western blot of SHP protein in HepaRG cells. It counts as cell-based, human. As to conditions: with OCA 1 µM, 48 h. As for the experimental part: Protein determination was performed from whole-cell lysates of terminally differentiated HepaRG cells treated for 48 h. Protein levels were quantified using a PierceTM BCA Protein Assay Kit (ThermoFisher Scientific, Waltham, United States) according to the manufacturer's protocol. The western blotting analysis was performed as described in our previous paper ([Stefela et al., 2020]) with mouse monoclonal anti-SHP antibody (clone OTI5F10, Cat. No. TA806319, Origene, Rockville, MD, United States) and antibody against GAPDH (Cell Signaling Technology, Leiden, the Netherlands) as a loading control. Protein concentration was measured using the BCA protein assay (Sigma-Aldrich/Merck, Prague, Czech Republic). Protein expression quantification was done using densitometric software (LabImage, Kapelan Bio-Imaging, Germany).
FIGURE 6 Regulation of FXR downstream genes by 7-ELCA and 7β-propyl-CDCA in the presence or absence of 1 µM OCA as the potent FXR agonist. Real-time qPCR analysis of mRNA expression of (A,C) BSEP and (B,D) SHP genes was performed in terminally differentiated HepaRG hepatic cells (A,B), and in primary human hepatocytes (PHH) from one donor treated for 24 h (C,D). (E) SHP protein expression in HepaRG cells after 48 h treatment with OCA alone or in combination with 7-ELCA and 7β-propyl-CDCA. […]

Series [4] in a line: MTS viability assay. The format is cell-based, murine. The settings on record: mouse, AML12 cells; AML12, 24 h, vehicle = 100%.
The target in series [5] is T1, GPBAR1 (Homo sapiens, UniProt Q8TDU6).
T1 construct: host or cells: HepG2
T1 sequence (Q8TDU6 1-330): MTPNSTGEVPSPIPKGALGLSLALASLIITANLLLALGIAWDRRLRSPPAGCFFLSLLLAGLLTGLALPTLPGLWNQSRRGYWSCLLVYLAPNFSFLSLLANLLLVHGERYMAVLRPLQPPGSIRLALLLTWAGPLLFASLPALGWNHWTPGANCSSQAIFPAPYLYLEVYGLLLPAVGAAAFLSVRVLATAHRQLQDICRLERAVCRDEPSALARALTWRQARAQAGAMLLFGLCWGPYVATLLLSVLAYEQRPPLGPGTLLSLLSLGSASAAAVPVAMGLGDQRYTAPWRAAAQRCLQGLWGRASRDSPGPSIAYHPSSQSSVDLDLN
In words: GPBAR1 CRE-luc luciferase reporter assay in HepG2 cells. The format is cell-based. As to conditions: for CRE-luc activation compared to LCA (in words): 10 µM, 5 h, LCA 10 µM set as 100%.

Series [6] relates to BSEP and SHP mRNA (FXR target genes), HepaRG cells. Nature of the series: RT-qPCR of FXR target genes in differentiated HepaRG cells. The format is cell-based, human. The settings on record: for BSEP mRNA level upregulated by OCA / SHP mRNA level upregulated by OCA: 40 µM with OCA 1 µM, 24 h; for BSEP and SHP mRNA expression, compound per se: without OCA. The source says:
Total RNA from HepaRG cells or primary human hepatocyte samples was isolated by the phenol/chloroform method with TRI-reagent (Merck) according to the manufacturer's protocol. The cDNA was synthesized using a Tetro cDNA Synthesis Kit (Bioline, now Meridian Bioscience, Memphis, United States), and RT-qPCR was run in the Quant Studio 6 instrument using the Fast Advanced Master Mix (ThermoFisher Scientific, Waltham, United States) according to the MIQE protocols. All the probes were obtained from ThermoFisher Scientific: ABCB11 (BSEP, Hs00184824_m1), NR0B2 (SHP, Hs00222677_m1).
FIGURE 6 Regulation of FXR downstream genes by 7-ELCA and 7β-propyl-CDCA in the presence or absence of 1 µM OCA as the potent FXR agonist. Real-time qPCR analysis of mRNA expression of (A,C) BSEP and (B,D) SHP genes was performed in terminally differentiated HepaRG hepatic cells (A,B), and in primary human hepatocytes (PHH) from one donor treated for 24 h (C,D). (E) SHP protein expression in HepaRG cells after 48 h treatment with OCA alone or in combination with 7-ELCA and 7β-propyl-CDCA. Data were normalized to B2M mRNA or GAPDH protein and are expressed relative to those of control (vehicle-treated) cells.

Sequence of vitamin D receptor (VDR) (P11473 whole entry): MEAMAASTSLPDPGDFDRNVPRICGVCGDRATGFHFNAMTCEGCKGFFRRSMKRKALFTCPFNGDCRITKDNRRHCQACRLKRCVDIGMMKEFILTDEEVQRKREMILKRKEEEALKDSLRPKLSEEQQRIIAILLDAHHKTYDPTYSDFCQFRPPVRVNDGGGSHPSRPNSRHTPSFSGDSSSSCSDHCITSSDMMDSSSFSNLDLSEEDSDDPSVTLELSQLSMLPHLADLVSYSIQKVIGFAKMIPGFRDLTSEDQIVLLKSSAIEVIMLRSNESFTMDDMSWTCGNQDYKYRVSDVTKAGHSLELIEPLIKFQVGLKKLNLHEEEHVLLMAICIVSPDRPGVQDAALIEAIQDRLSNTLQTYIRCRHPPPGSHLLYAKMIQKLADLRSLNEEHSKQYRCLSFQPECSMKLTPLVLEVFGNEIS

Take `C/C=C1\C[C@@H]2C[C@H](O)CC[C@]2(C)[C@H]2CC[C@]3(C)[C@@H]([C@H](C)CCC(=O)O)CC[C@H]3[C@H]12` [2a, (E)-3α-Hydroxy-7-ethylidene-5β-cholan-24-oic acid]: the GLP-1 secretion entry in series [1] (Gpbar1 siRNA transfected GLUTag cells) is listed as “did not lead to the significantly increased GLP-1 production”. Moreover, in series [1] (siRNA control GLUTag cells), the GLP-1 secretion result is “significant increase of the GLP-1 secretion”. For the same compound, the “antagonism of VDR activation by model ligand” value in series [2] (10 µM, with 1α,25(OH)2vitaminD3 10 nM) is “did not antagonize”. Further, in series [2] (agonistic assay, 24 h), the “activation of VDR” value is listed as “did not activate”. Besides, the “SHP protein expression in cells treated with OCA” value in series [3] is “FXR antagonistic effect”. Moreover, the viability at 24 h, 10 µM in series [4] is 108 ± 4.8%. For the same compound, in series [5], the “CRE-luc activation compared to LCA (in words)” value is on record as “significantly increase CRE-luc activation more than LCA”. Also, the EC50 in series [5] (abstract, read-out: EC50, GPBAR1 agonist) was found to be 26 nM. In series [6], the “BSEP mRNA level upregulated by OCA” value is recorded as “reduced”; the “SHP mRNA level upregulated by OCA” value is on record as “reduced”; the “BSEP and SHP mRNA expression, compound per se” value was “did not have an impact”.

As to `CCC[C@@]1(O)C[C@@H]2C[C@H](O)CC[C@]2(C)C2CC[C@@]3(C)C(CC[C@@H]3[C@H](C)CCC(=O)O)C21` (stereo partly drawn) [2f, 3α,7α-Dihydroxy-7β-propyl-5β-cholan-24-oic acid], the “SHP protein expression in cells treated with OCA” value in series [3] is “FXR antagonistic effect”. Besides, the viability at 24 h, 10 µM in series [4] was 81.2 ± 1%. In series [5], the “CRE-luc activation compared to LCA (in words)” value is given as “comparable activities to LCA”. Besides, in series [6], the “BSEP mRNA level upregulated by OCA” value is “reduced”; the “SHP mRNA level upregulated by OCA” value is “reduced”; the “BSEP and SHP mRNA expression, compound per se” value is listed as “did not have an impact”.
